Experimental data taken from the supplement of paper PMC10627819.

How the values were obtained:
Assay in all cases: fitness (endpoint OD595 vs no drug) (fraction); higher = more growth
B. subtilis 168 = tested on: B. subtilis 168
Summary of the method: (§1)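 Fitness expresses the optical density reached at the stationary-phase transition as a fraction of the robust mean of no-drug control wells. It is capped at 1. Measurements were OD595 every 30 min for 14 h at 37 °C after inoculation of 384-well plates at OD595 0.01 (30 µl, or 55 µl for S. pneumoniae), minus the first reading.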

S. aureus Newman = tested on: S. aureus Newman
Summary of the method: as §1

S. aureus DSM 20231 = tested on: S. aureus DSM 20231
Summary of the method: as §1

S. pneumoniae D39V = tested on: S. pneumoniae D39V
Summary of the method: as §1
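Also: OD595 on entry to stationary phase over no-drug wells; at most 1.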

N[C@@H]1CONC1=O [Cycloserine D] + CC(C1CCC(C(O1)OC2C(CC(C(C2O)OC3C(C(C(CO3)(C)O)NC)O)N)N)N)NC [Gentamicin]
main component drawn
Details | fitness
B. subtilis 168, first compound 0.125 µg/mL, partner 0.0625 µg/mL | 0.964
B. subtilis 168, first compound 0.125 µg/mL, partner 0.25 µg/mL | 0.102
B. subtilis 168, first compound 0.25 µg/mL, partner 0.0625 µg/mL | 0.943
B. subtilis 168, first compound 0.25 µg/mL, partner 0.25 µg/mL | 0.0775
B. subtilis 168, first compound 0.5 µg/mL, partner 0.0625 µg/mL | 0.914
B. subtilis 168, first compound 0.5 µg/mL, partner 0.25 µg/mL | 0.0653
S. aureus Newman, first compound 0.375 µg/mL, partner 0.375 µg/mL | 0.986
S. aureus Newman, first compound 0.375 µg/mL, partner 0.5 µg/mL | 0.923
S. aureus Newman, first compound 0.375 µg/mL, partner 0.75 µg/mL | 0.974
S. aureus Newman, first compound 0.375 µg/mL, partner 1 µg/mL | ≥ 1
S. aureus Newman, first compound 0.375 µg/mL, partner 1.5 µg/mL | 0.955
S. aureus Newman, first compound 0.375 µg/mL, partner 2 µg/mL | ≥ 1
S. aureus Newman, first compound 0.75 µg/mL, partner 0.375 µg/mL | ≥ 1
S. aureus Newman, first compound 0.75 µg/mL, partner 0.5 µg/mL | 0.921
S. aureus Newman, first compound 0.75 µg/mL, partner 0.75 µg/mL | ≥ 1
S. aureus Newman, first compound 0.75 µg/mL, partner 1 µg/mL | ≥ 1
S. aureus Newman, first compound 0.75 µg/mL, partner 2 µg/mL | ≥ 1
S. aureus Newman, first compound 1.5 µg/mL, partner 0.375 µg/mL | 1
S. aureus Newman, first compound 1.5 µg/mL, partner 0.5 µg/mL | 0.952
S. aureus Newman, first compound 1.5 µg/mL, partner 0.75 µg/mL | ≥ 1
S. aureus Newman, first compound 1.5 µg/mL, partner 1 µg/mL | ≥ 1
S. aureus Newman, first compound 1.5 µg/mL, partner 2 µg/mL | ≥ 1

N[C@@H]1CONC1=O [Cycloserine D] + CCC[C@@H]1C[C@@H](C(=O)N[C@@H]([C@H]2O[C@H](SC)[C@H](O)[C@@H](O)[C@H]2O)[C@@H](C)O)N(C)C1 [Lincomycin]
fitness
Details | first compound 0.125 µg/mL | first compound 0.25 µg/mL | first compound 0.375 µg/mL | first compound 0.5 µg/mL | first compound 0.75 µg/mL | first compound 1.5 µg/mL
B. subtilis 168, partner 0.1 µg/mL | 0.87 | 0.873 | – | 0.911 | – | –
B. subtilis 168, partner 0.2 µg/mL | 0.861 | 0.877 | – | 0.932 | – | –
B. subtilis 168, partner 0.4 µg/mL | 0.868 | 0.906 | – | 0.964 | – | –
S. aureus DSM 20231, partner 0.1 µg/mL | – | – | 0.936 | – | 0.921 | 0.915
S. aureus DSM 20231, partner 0.4 µg/mL | – | – | 0.278 | – | 0.271 | 0.247

fitness, B. subtilis 168, one replicate
Details | first compound 0.125 µg/mL | first compound 0.25 µg/mL | first compound 0.5 µg/mL
partner 0.8 µg/mL | 0.923 | 0.939 | 0.905
partner 1.6 µg/mL | 0.88 | 0.813 | 0.862

N[C@@H]1CONC1=O [Cycloserine D] + CN(C)c1cc(NC(=O)CNC(C)(C)C)c(O)c2c1C[C@H]1C[C@H]3[C@H](N(C)C)C(O)=C(C(N)=O)C(=O)[C@@]3(O)C(O)=C1C2=O [Tigecycline]
fitness
Details | first compound 0.125 µg/mL | first compound 0.25 µg/mL | first compound 0.375 µg/mL | first compound 0.5 µg/mL | first compound 0.75 µg/mL | first compound 1.5 µg/mL
B. subtilis 168, partner 0.039 µg/mL | 0.944 | 0.987 | – | ≥ 1 | – | –
B. subtilis 168, partner 0.078 µg/mL | 0.955 | 0.867 | – | 0.912 | – | –
B. subtilis 168, partner 0.156 µg/mL | 0.914 | 0.911 | – | 0.982 | – | –
S. aureus Newman, partner 0.039 µg/mL | – | – | 0.956 | – | 0.936 | 0.931
S. aureus Newman, partner 0.078 µg/mL | – | – | 0.981 | – | ≥ 1 | 0.994
S. aureus Newman, partner 0.156 µg/mL | – | – | 0.986 | – | 0.983 | 0.971

fitness, B. subtilis 168, one replicate
Details | first compound 0.125 µg/mL | first compound 0.25 µg/mL | first compound 0.5 µg/mL
partner 0.125 µg/mL | ≥ 1 | ≥ 1 | 0.994
partner 0.25 µg/mL | ≥ 1 | 0.97 | 0.922
partner 0.5 µg/mL | 0.944 | 0.94 | ≥ 1

N[C@@H]1CONC1=O [Cycloserine D] + CN[C@@H]1[C@H](O[C@H]2[C@H](O[C@H]3[C@H](O)[C@@H](O)[C@H](N=C(N)N)[C@@H](O)[C@@H]3N=C(N)N)O[C@@H](C)[C@]2(O)C=O)O[C@@H](CO)[C@H](O)[C@H]1O [Streptomycin]
fitness
Details | first compound 0.125 µg/mL | first compound 0.25 µg/mL | first compound 0.375 µg/mL | first compound 0.5 µg/mL | first compound 0.75 µg/mL | first compound 1.5 µg/mL
B. subtilis 168, partner 2 µg/mL | 0.931 | 0.937 | – | 0.982 | – | –
B. subtilis 168, partner 8 µg/mL | 0.0826 | 0.0554 | – | 0.074 | – | –
S. aureus Newman, partner 1 µg/mL | – | – | 0.984 | – | 0.985 | 0.978
S. aureus Newman, partner 2 µg/mL | – | – | 0.976 | – | 0.93 | 0.941

N[C@@H]1CONC1=O [Cycloserine D] + COc1cc(Cc2cnc(N)nc2N)cc(OC)c1OC [Trimethoprim]
fitness, B. subtilis 168, one replicate
Details | partner 0.1 µg/mL | partner 0.2 µg/mL | partner 0.4 µg/mL | partner 1 µg/mL | partner 2 µg/mL
first compound 0.125 µg/mL | 0.917 | 0.789 | 0.584 | 0.344 | 0.268
first compound 0.25 µg/mL | 0.849 | 0.757 | 0.56 | 0.323 | 0.243
first compound 0.5 µg/mL | 0.986 | 0.818 | 0.533 | 0.358 | 0.234

fitness
Details | partner 0.125 µg/mL | partner 0.25 µg/mL | partner 0.5 µg/mL | partner 1 µg/mL
B. subtilis 168, first compound 0.125 µg/mL | 0.635 | 0.501 | 0.475 | –
B. subtilis 168, first compound 0.25 µg/mL | 0.664 | – | 0.48 | –
B. subtilis 168, first compound 0.5 µg/mL | 0.664 | – | 0.511 | –
S. aureus DSM 20231, first compound 0.375 µg/mL | 0.758 | – | – | 0.0316
S. aureus DSM 20231, first compound 0.75 µg/mL | 0.807 | 0.61 | – | 0.0296
S. aureus DSM 20231, first compound 1.5 µg/mL | 0.804 | 0.569 | – | 0.0385

O=C(O[C@@H]1Cc2c(O)cc(O)cc2O[C@@H]1c1cc(O)c(O)c(O)c1)c1cc(O)c(O)c(O)c1 [EGCG] + CC1(C)S[C@@H]2[C@H](NC(=O)Cc3ccccc3)C(=O)N2[C@H]1C(=O)O [Penicillin G]
fitness, S. aureus Newman
Details | first compound 12.5 µg/mL | first compound 25 µg/mL | first compound 50 µg/mL
partner 0.0195 µg/mL | 0.738 | 0.623 | –
partner 0.039 µg/mL | 0.743 | 0.739 | 0.594
partner 0.078 µg/mL | 0.741 | 0.729 | 0.644

O=C(O[C@@H]1Cc2c(O)cc(O)cc2O[C@@H]1c1cc(O)c(O)c(O)c1)c1cc(O)c(O)c(O)c1 [EGCG] + CC1=C(C(=O)O)N2C(=O)[C@@H](NC(=O)[C@H](N)c3ccccc3)[C@H]2SC1 [Cephalexin]
fitness
Details | first compound 6.25 µg/mL | first compound 12.5 µg/mL | first compound 25 µg/mL | first compound 50 µg/mL
B. subtilis 168, partner 0.125 µg/mL | 0.875 | 0.51 | 0.222 | –
B. subtilis 168, partner 0.25 µg/mL | 0.988 | – | – | –
B. subtilis 168, partner 0.5 µg/mL | 0.919 | – | – | –
S. aureus Newman, partner 0.25 µg/mL | – | 0.737 | 0.682 | 0.775
S. aureus Newman, partner 0.5 µg/mL | – | 0.776 | 0.762 | 0.739
S. aureus Newman, partner 1 µg/mL | – | 0.796 | 0.806 | 0.79
S. pneumoniae D39V, partner 1 µg/mL | – | 0.669 | 0.72 | –
S. pneumoniae D39V, partner 2 µg/mL | – | 0.0733 | 0.2 | 0.111
S. pneumoniae D39V, partner 4 µg/mL | – | 0.0244 | 0.0566 | 0.0515

fitness, one replicate
Details | first compound 6.25 µg/mL | first compound 12.5 µg/mL | first compound 25 µg/mL | first compound 50 µg/mL
B. subtilis 168, partner 1 µg/mL | 0.993 | 0.862 | 0.697 | –
S. pneumoniae D39V, partner 0.125 µg/mL | – | 0.926 | 0.96 | ≥ 1
S. pneumoniae D39V, partner 0.25 µg/mL | – | 0.902 | 0.919 | 0.937
S. pneumoniae D39V, partner 0.5 µg/mL | – | 0.932 | 0.98 | 0.957
